We go through three molecules from EP4455142A1, “NOVEL INHIBITOR OF QPCTL AND/OR QC” (Scenic Immunology B.V., priority 2023, dated 2024).

What is called IC50 is the concentration that inhibits the measured activity by half. One may read the CLint scaled as a measure of how fast metabolising enzymes remove a compound, apart from limits set by blood flow.

For one series, the target named is T1, human isoQC (Homo sapiens, UniProt Q9NXS2).
T1 construct: The Golgi luminal, enzymatically active region of human isoQC (S53-L382; see, e.g., Huang et al., 2011); GST (with enterokinase site) (N, cleaved yes); made in house; host or cells: E. coli
Description: Assay 1 - isoQC potency, fluorescent enzymatic assay (H-Gln-AMC, coupled pGAPase detection). It is filed as biochemical. The settings on record: recombinant isoQC, 1 hour at 37°C. An excerpt: The Golgi luminal, enzymatically active region of human isoQC (S53-L382; see, e.g., Huang et al., 2011) was obtained by expression in E. coli of an N-terminally GST Enterokinase and C-terminally 6xHis tagged construct in the pET41(+) vector and subsequent purification using Ni-NTA IMAC. Enterokinase digestion ensued, followed by another Ni-NTA IMAC purification, Superdex75 based size exclusion and finally a spin concentration using a 10 kDa molecular weight cutoff. The final protein is formulated in 50 mM Tris-HCl, 150 mM NaCl, 50% Glycerol, pH 7.8.
Pyroglutamylation was measured by conversion of glutamine-4-amino-7-methylcoumarine (H-Gln-AMC, Bachem) to pyroglutamyl-AMC, which is subsequently a specific substrate for pyroglutamylaminopeptidase (pGAPase, Qiagen), releasing free AMC which can be fluorescently detected. For a typical inhibition assay, 7.5 µL aliquots of threefold dilutions of test compound in 50mM Tris pH8 buffer were plated in 384-well plates. 15 µL 20 µM hGln-AMC (diluted from a 40 mM stock dissolved in 25 mM HEPES using 50 mM Tris-HCl 25 pH 8.0) was added to each well. Finally, 7.5 µL, 3 ng/µL recombinant isoQC enzyme was added and the reaction mixture was incubated for 1 hour at 37°C. A 5 minute incubation at 98°C was then performed to denature the isoQC enzyme and stop the reaction.
To detect the amount of pyroglutamyl-AMC formed, a 0.125 U/mL pGAPase enzyme diluted in 50 mM Tris-HCl pH 8.0 containing 10 mM dithiothreitol (DTT) solution was prepared. 25 µL of the pyroglutamylation reaction mixture was transferred into an empty plate and to that, 25 µL of the pGAPase enzyme solution was added. Plates were then incubated for 25 minutes at room temperature before fluorescence readings were taken on an Envision2 plate reader with excitation set at 380 nm and emission at 450 nm. DMSO concentrations during the assay never exceeded 1% and activities were compared to controls containing only the same amount of DMSO and no test compound. Controls were taken along containing pyroglutamylated-AMC (Bachem, dissolved at 10 mM in DMSO) instead of H-Gln-AMC to control for pGAPase inhibition.
IC50 values are calculated using non-linear regression analysis with GraphPad Prism software.

In a further series the test system is pyroglutamylated CD47. Description: Assay 3 - cell-based potency assay (pyroglutamylation in live cells, total CD47/pE-CD47 dual staining, FACS). On the set-up: species or system human. To be noted: IC50 of CC2C6 signal, KBM7 cells, 72 hours incubation. How it is done:
Cells were spun for 4 minutes at 1500 rpm and washed once with PBS / 0.5% BSA. Cells were spun down again and the supernatant was removed and incubated in 100 uL antibody staining solution (PBS / 0.5% BSA / 0.1 µg/mL DAPI (4',6-diamidino-2-phenylindole, ThermoFisher Scientific) and a mixture of 1:500 FITC-conjugated anti-human CD47 clone 2D3, which recognizes total CD47 irrespective of its pyroglutamylation state, and 1:500 Alexa647-conjugated anti-human CD47 clone CC2C6, which specifically detects pyroglutamylated CD47) for 2 hours at 4°C. Next, the cells were spun down and washed twice with 2 x 150 µL PBS / 0.5% BSA to remove unbound antibody. Cells were again spun down and taken up in 300 µL FACS buffer before analysis on a Celesta FACS machine (BD Biosciences).
KBM7 cells (Kotecki et al., 1999) were infected with lentivirus produced by transfecting pSCNC-LentiCRISPR-QPCTL or pSCNC-LentiCRISPR-CD47 into HEK-293T cells according to standard protocols. After 24 hours incubation, cells were selected with puromycin (Invivogen, 1 µg/mL) for 48 hours. Cells were stained for total CD47 and pE-CD47 and QPCTL k.o. cells were sorted out as negative for pE-CD47, and CD47 k.o. cells as negative for total CD47, using a FACSAria III and FACS Diva software (BD Biosciences).
In order to test compounds for their effect on pyroglutamylation in live cells, 25000 KBM7 cells per well were seeded in a 96-well U-bottom plate in 150 µl IMDM / 10% FCS / 1% Pen / Strep medium and a 10-point 2-fold dilution range of test compounds. After 72 hours incubation at 37°C, 5% COz, cells were stained for total CD47 and pE-CD47 and analysed on a BD Celesta using FACS Diva software (BD Biosciences). Cells gated for DAPI negativity were recorded and the median fluorescence intensity (MFI) of each sample was transformed to linearly scale between the MFI's of wildtype and CD47 knockout cells (in case of the 2D3 antibody) and the wildtype and QPCTL knockout cells (in case of the CC2C6 antibody). ICso's were calculated by 3 parameter logistic regression of the CC2C6 signal vs. compound concentration, where the top of the sigmoidal curve was fixed at 1, using R and the drc package (http://www.r-project.org, https://cran.r-project.org/web/packages/drc/index.html).

A short description of series [1]: Microsomal stability, mouse (MLM). It is filed as in vitro ADME, CD-1 mouse. To be noted: mouse liver microsomes, 0.5 mg protein/mL, 1 µM test compound. How it is done: (§1) In order to assess metabolic stability of test compounds, commercially acquired CD-1 mouse liver microsome preparations were incubated in 100 µL at a final concentration of 0.5 mg protein/mL, 1 µM test compound, 0.99% methanol and 0.01% DMSO, after a 10 minute pre-incubation at 37°C and addition of 0.1 volumes 10 U/mL NADPH in 10 mM MgCl2. Reactions were stopped by addition of 300 µL cold acetonitrile containing internal standards at t = 0, 5, 10, 20, 30, and 60 minutes. Samples were submitted to LC-MS/MS analysis subsequently and the slope of linear regression of time versus In(% Remaining concentration) was derived to calculate t½ as t½= In(2) /(-Slope). Then Clint(mic) and Clint(liver) were calculated as follows: CLint(mk) = (0.693)/(In vitro T1/2) · (1)/(mg/mL microsomal protein in reaction system) [formula] CLint(liver) = CLint(mic) · (mg microsomes)/(g liver) · (g liver)/(kg body weight) [formula]
Where 45 mg microsomal protein/g liver and 88 g liver/kg mouse bodyweight were used as standardized parameters for mouse microsomes.

The nature of series [2]: Microsomal stability, human (HLM). The series is classed as in vitro ADME. To be noted: liver microsomes, 0.5 mg protein/mL, 1 µM test compound. How it is done:
as §1
The same procedure was performed for human microsomes, SD rat microsomes and (beagle) dog microsomes.
Where 45 mg microsomal protein/g liver and 20 g liver/kg human bodyweight were used as standardized parameters for human microsomes.
(Microsomes from liver hold many membrane-bound enzymes, among them those of drug oxidation.)

T1 sequence (Q9NXS2 53-382): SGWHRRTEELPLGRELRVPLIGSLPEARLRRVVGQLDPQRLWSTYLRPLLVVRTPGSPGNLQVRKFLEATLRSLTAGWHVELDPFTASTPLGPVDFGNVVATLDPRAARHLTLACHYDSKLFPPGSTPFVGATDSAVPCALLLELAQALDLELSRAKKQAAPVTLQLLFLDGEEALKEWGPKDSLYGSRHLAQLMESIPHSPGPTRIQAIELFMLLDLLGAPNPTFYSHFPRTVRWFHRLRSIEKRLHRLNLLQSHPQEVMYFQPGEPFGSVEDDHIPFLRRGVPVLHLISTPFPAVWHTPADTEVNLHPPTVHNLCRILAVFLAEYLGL

As for `O=C1OCC(c2ccc(N3CCCC3)cc2)N1c1ccc2[nH]cnc2c1` (single isomer, unassigned) [(18)-ent2], the half-inhibitory concentration (IC50) came out at 23.9 nM on human isoQC and 3490 nM with pyroglutamylated CD47. For the same molecule, the intrinsic metabolic clearance (CLint scaled) at 1 µM was 488 mL/min/kg in series [1] and 73.8 mL/min/kg in series [2].

As for `O=C1OCC(c2ccc(C3CCC(F)(F)CC3)cc2)N1c1ccc2[nH]cnc2c1` (single isomer, unassigned) [(19)-ent2], the values for the half-inhibitory concentration (IC50) at human isoQC and in the series with pyroglutamylated CD47 were 35.8 nM and 3730 nM, respectively. In addition, the values for the intrinsic metabolic clearance (CLint scaled) at 1 µM in series [1] and in series [2] were 339 mL/min/kg and 19.7 mL/min/kg, respectively.

Regarding `O=C1OC[C@H](c2ccc(-c3cnn(C(F)(F)F)c3)cc2F)N1c1ccc2[nH]cnc2c1` [Compound (1)], the IC50 at human isoQC came to 1.7 nM; in the series with pyroglutamylated CD47 (Homo sapiens, KBM-7, 72 h) it was 92.1 nM. Moreover, the results for the intrinsic clearance (CLint scaled) at 1 µM in series [1] and in series [2] were 67.5 mL/min/kg and below 8.6 mL/min/kg, respectively.
